Reference: US20220127297A1, “Novel Antibacterial 3"-Derivatives Of 4,6-Disubstituted 2,5-Dideoxystreptamine Aminoglycoside Antibiotics” (AGILeBiotics B.V., priority 2018, published 2022)
Values after ≈ are worked out from the molar mass of the structure shown.

tested on: E. faecalis DSM 2570; test: MIC 50, broth micro-dilution, DSM strains; type: cell-based, Enterococcus faecalis; settings: not given
Description: 3.2 Against Selected Bacteria of the ESKAPE Panel and Enterococcus faecalis (DSM Strains)
Tested reference compounds. Amikacin sulfate (Cat. No. 01693, Chem-Impex), Gentamicin sulfate (Cat. No. G4918, Sigma Aldrich).
Microbial strains. Enterococcus faecalis DSM 2570, Klebsiella pneumoniae DSM 26371, Acinetobacter baumannii DSM 105126, Enterobacter cloacae 3MRGN (clinical bronchial aspirate isolate).
Culture media and equipment. BBL™ Mueller Hinton Broth 2 (Lot. BCBW1143, Cat. No. 70192, Sigma); Trypcase Soy Blood-agar plates (Cat. No. 43001, Biomérieux); Cryoinstant (contains 15% glycerol; Cat. No. 822070ZA, VWR International); GasPak™ EZ Standard Incubation Container (Cat. No. 260671, Becton Dickinson); GasPak™ EZ Campy Container System Sachets (Cat. No. 260680, Becton Dickinson); 96-well deep well plate, 1 mL (Cat. No. 0030506.200, Eppendorf); Plate lid (Cat. No. 0030131.525, Eppendorf); 96-well plate, F-bottom (Cat. No. 260860, Nunc); Incubator (Sartorius Certomat BS-1); Laminar flow (Heraeus HS12); UV/VIS meter (Perkin Elmer Lambda Bio+); Platereader (Tecan Infinite M200 Pro).
Compound preparation. Compounds were prepared in MH2 media at a concentration of 5 mM and stored at 4° C. For testing, solutions of 128 μM were prepared in MH2, for tests against E. faecalis a solution of 512 μM was prepared. Out of these working solutions, 400 μL was transferred to wells in the first column of 96-well deep well plates. Each compound was transferred in triplicate. Plates were previously filled with 200 μL of MH2 media in all wells except for the wells in the first column. After compound and antibiotic addition, the compounds were serial two-fold diluted by transferring 200 μL from the first to the second column, then from the second to the third column and so on. Finally, 200 μL was removed from the last column.
Inoculum preparation. Microorganisms used were all revived from 15% glycerol storage in Croinstant tubes at −28° C. by plating them on blood agar plates. A. baumanni, and E. cloacae were grown aerobically at 37° C., E. faecalis was grown microaerophilically at 37° C., and K. pneumoniae was grown aerobically at 37° C. Plates were stored at 4° C. for up to two weeks, after which new plates were prepared from −28° C. A single colony was inoculated in MH2 media and grown at 37° C. and 200 rpm to an optical density (measured by UV/Vis spectroscopy) of 0.6-0.8 at 600 nm. Out of these suspensions, actual inoculums were prepared by diluting them to an optical density of 0.1 in MH2 media. From these inoculums, 200 μL was transferred to each well, resulting in a final compound concentration range of 64 μM-31.3 nM for, K. pneumoniae, A. baumanni, and E. cloacae, and 256 μM-125 nM for E. faecalis. Plates inoculated with E. faecalis were placed inside a GasPak™ Container System with GasPak™ Campy Container System sachets. All plates were incubated at 200 rpm for 18 h under the microorganism culturing conditions mentioned above.
MIC determination. After 18 h of growth, 200 μL was transferred to a 96-well F-bottom plate. The optical density was determined by a plate reader at 600 nm, with 10 s shaking before reading. Triplicate measurements were averaged, and a growth curve was plotted in Excel. The first column in which the growth reached half the value of maximum growth was determined as the MIC50 value for that particular compound.
MIC50. The MIC50 of a compound was assigned at which the bacterial growth reached half the value of maximum growth.

Structure (SMILES) | MIC50
N=C(N)NC1[C@@H](O)C(OC2[C@@H](F)[C@H](O[C@H]3OC(CN)[C@@H](O)[C@H](O)C3N)C(N)C[C@H]2NC(=O)[C@@H](O)CCN)O[C@H](CO)[C@H]1O (stereo partly drawn) [ABX4004, 3′epi-KanaB-AHB-F-Gua] | 16 to 32 µM
NCC[C@H](O)C(=O)N[C@@H]1CC(N)[C@@H](O[C@H]2OC(CN)[C@@H](O)CC2N)[C@H](O)C1OC1O[C@H](CO)[C@@H](O)C(N)[C@H]1O (stereo partly drawn) [ABX5004, Tobra-AHB] | 32 µM (≈ 18.2 µg/mL)
NCC[C@H](O)C(=O)N[C@@H]1CC(N)[C@@H](O[C@H]2OC(CN)[C@@H](O)[C@@H](O)C2N)[C@H](O)C1OC1O[C@H](CO)[C@@H](O)C(N)[C@H]1O (stereo partly drawn) [ABX4002, 3′Epi-KanaB-AHB] | 16 to 32 µM
NCC[C@H](O)C(=O)N[C@@H]1C[C@H](N)[C@@H](O[C@H]2O[C@H](CN)[C@@H](O)[C@@H](O)[C@H]2O)[C@H](O)[C@H]1O[C@H]1O[C@H](CO)[C@@H](O)[C@H](N)[C@H]1O [ABX3002, 3′Epi-KanaA-AHB] | 128 µM (≈ 75 µg/mL)

same assay, conditions: Enterococcus faecalis, DSM2570, read-out: MIC 50

Structure (SMILES) | MIC50
N=C(NC[C@H]1CCNC1)NC1[C@@H](O)C(OC2[C@@H](F)[C@H](O[C@H]3OC(CN)[C@@H](O)CC3N)C(N)C[C@H]2NC(=O)[C@@H](O)CCN)O[C@H](CO)[C@H]1O (stereo partly drawn) [ABX5042, Tobra-AHB-F-Gua (S) pyrrolidine-3-ylmethyl] | 8 µM (≈ 5.57 µg/mL)
CC(C)(C)CCNC(=N)NC1[C@@H](O)C(OC2[C@@H](F)[C@H](O[C@H]3OC(CN)[C@@H](O)CC3N)C(N)C[C@H]2NC(=O)[C@@H](O)CCN)O[C@H](CO)[C@H]1O (stereo partly drawn) [ABX5025, Tobra-AHB-F-Gua 2-tBu-ethyl] | 16 µM (≈ 11.1 µg/mL)
